From ChEMBL document CHEMBL4813920, “Metronidazole-conjugates: A comprehensive review of recent developments towards synthesis and medicinal perspective” (Eur J Med Chem, 2021)
Converted amounts (≈) assume the structure as drawn.

How the values were obtained:
[1] = Cytotoxicity against African green monkey Vero cells incubated for 48 hrs by sulforhodamine B method; assay type: cell-based; details: chlorocebus sabaeus
[2] = Selectivity index, ratio of CC50 for African green monkey Vero cells to IC50 for antigiardial activity against Giardia intestinalis MSS:0696:1; assay type: toxicity; details: read-out: Ratio CC50/IC50
[3] = Selectivity index, ratio of CC50 for African green monkey Vero cells to IC50 for antigiardial activity against Trichomonas vaginalis GT3; assay type: toxicity; details: read-out: Ratio CC50/IC50
[4] = test system: Trichomonas vaginalis; assay: Anti-trichomonas activity against Trichomonas vaginalis GT3 incubated for 48 hrs; assay type: functional, organism-based; details: GT3, 48 h
[5] = test system: Giardia intestinalis; assay: Antigiardial activity against Giardia intestinalis MSS:0696:1 incubated for 48 hrs; assay type: functional, organism-based; details: Giardia duodenalis, MSS:0696:1, 48 h
[6] = test system: A549; assay: cells; details: Homo sapiens, A549, 48 h
[7] = test system: HepG2; assay: cells; details: Homo sapiens, HepG2, 48 h
[8] = test system: MCF7; assay: cells; details: Homo sapiens, MCF7, 48 h
[9] = test system: HeLa; assay: cells; details: Homo sapiens, 48 h
[10] = target: Telomerase reverse transcriptase (Homo sapiens, UniProt O14746); assay: Inhibition of telomerase in human SGC-7901 cell extract by TRAP assay
Telomerase reverse transcriptase, sequence (O14746 whole entry): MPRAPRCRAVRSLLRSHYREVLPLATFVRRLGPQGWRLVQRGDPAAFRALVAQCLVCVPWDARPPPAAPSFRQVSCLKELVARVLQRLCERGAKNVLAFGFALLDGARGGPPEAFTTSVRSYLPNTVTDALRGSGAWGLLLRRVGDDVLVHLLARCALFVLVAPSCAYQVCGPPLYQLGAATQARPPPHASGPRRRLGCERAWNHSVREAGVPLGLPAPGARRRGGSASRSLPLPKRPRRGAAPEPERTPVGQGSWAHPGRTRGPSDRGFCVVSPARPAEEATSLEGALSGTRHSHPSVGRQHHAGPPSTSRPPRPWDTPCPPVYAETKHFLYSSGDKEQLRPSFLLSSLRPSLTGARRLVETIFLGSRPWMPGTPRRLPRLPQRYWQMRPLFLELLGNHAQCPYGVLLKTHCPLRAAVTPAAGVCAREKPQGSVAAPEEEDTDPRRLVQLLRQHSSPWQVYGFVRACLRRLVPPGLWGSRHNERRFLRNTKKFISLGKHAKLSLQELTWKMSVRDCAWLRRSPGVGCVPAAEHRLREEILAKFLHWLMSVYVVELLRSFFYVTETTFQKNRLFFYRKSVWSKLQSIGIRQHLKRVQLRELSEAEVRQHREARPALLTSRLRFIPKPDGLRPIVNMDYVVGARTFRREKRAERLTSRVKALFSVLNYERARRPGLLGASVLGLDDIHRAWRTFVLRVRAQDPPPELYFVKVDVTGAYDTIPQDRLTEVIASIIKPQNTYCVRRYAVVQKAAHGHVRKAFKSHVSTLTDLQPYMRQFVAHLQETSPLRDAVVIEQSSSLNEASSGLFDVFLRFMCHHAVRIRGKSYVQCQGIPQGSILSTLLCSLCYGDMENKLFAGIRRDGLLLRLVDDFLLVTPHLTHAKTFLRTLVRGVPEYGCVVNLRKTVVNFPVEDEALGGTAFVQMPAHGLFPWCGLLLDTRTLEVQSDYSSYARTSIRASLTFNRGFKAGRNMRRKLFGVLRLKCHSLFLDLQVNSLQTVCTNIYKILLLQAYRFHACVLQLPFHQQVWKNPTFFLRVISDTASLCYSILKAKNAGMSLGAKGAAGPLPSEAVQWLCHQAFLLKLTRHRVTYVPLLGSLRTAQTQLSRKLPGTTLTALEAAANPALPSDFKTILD

[11] = test system: U-251; assay: Antiproliferative activity against human U-251 cells incubated for 24 to 48 hrs by CCK8 assay; assay type: functional, cell-based
[12] = test system: A549; assay: Antiproliferative activity against human A549 cells incubated for 24 to 48 hrs by CCK8 assay; assay type: functional, cell-based
[13] = test system: HeLa; assay: Antiproliferative activity against human Hela cells incubated for 24 to 48 hrs by CCK8 assay; assay type: functional, cell-based
[14] = test system: HepG2; assay: Antiproliferative activity against human HepG2 cells incubated for 24 to 48 hrs by CCK8 assay; assay type: functional, cell-based
[15] = test system: B16-F10; assay: Antiproliferative activity against mouse B16-F10 cells incubated for 24 to 48 hrs by MTT assay; assay type: functional, cell-based
[16] = test system: Staphylococcus aureus; assay: Antibacterial activity against Staphylococcus aureus ATCC 6538 by MH media dilution method; assay type: functional
[17] = test system: Pseudomonas aeruginosa; assay: Antibacterial activity against Pseudomonas aeruginosa ATCC 13525 by MH media dilution method; assay type: functional
[18] = test system: Escherichia coli; assay: Antibacterial activity against Escherichia coli ATCC 35218 by MH media dilution method; assay type: functional
[19] = Inhibition of Staphylococcus aureus TyrRS using L-tyrosine and tRNA as substrate preincubated for 10 mins followed by substrate addition by liquid scintillation counting method
[20] = test system: Bacillus spizizenii; assay: Antibacterial activity against Bacillus subtilis ATCC 6633 by MH media dilution method; assay type: functional
[21] = test system: Helicobacter pylori; assay: Antibacterial activity against Helicobacter pylori ATCC 26695 incubated for 48 hrs by MTT assay; assay type: functional, organism-based
[22] = test system: Helicobacter pylori; assay: Antibacterial activity against Helicobacter pylori P12 incubated for 48 hrs by MTT assay; assay type: functional, organism-based
[23] = test system: Clostridium perfringens; assay: Antibacterial activity against Clostridium perfringens ATCC 13124 incubated for 48 hrs under anaerobic condition by MTT assay; assay type: functional
[24] = test system: Helicobacter pylori; assay: Antimicrobial activity against Helicobacter pylori SS1 clinical isolate2 for 3 days by agar dilution method; assay type: functional; details: SS1 clinical isolate2, 72 h, time 3 day
[25] = test system: Helicobacter pylori; assay: Antimicrobial activity against Helicobacter pylori ATCC 43504 incubated for 3 days by agar dilution method; assay type: functional; details: NCTC 11637 = CCUG 17874 = ATCC 43504, 72 h, time 3 day
[26] = test system: Helicobacter pylori; assay: Antimicrobial activity against Helicobacter pylori clinical isolate4 for 3 days by agar dilution method; assay type: functional; details: clinical isolate4, 72 h, time 3 day
[27] = test system: Helicobacter pylori; assay: Antimicrobial activity against Helicobacter pylori clinical isolate1 for 3 days by agar dilution method; assay type: functional; details: clinical isolate1, 72 h, time 3 day
[28] = test system: Helicobacter pylori; assay: Antimicrobial activity against Helicobacter pylori SS1 incubated for 3 days by agar dilution method; assay type: functional; details: SS1, 72 h, time 3 day
[29] = test system: Helicobacter pylori; assay: Antimicrobial activity against Helicobacter pylori clinical isolate3 for 3 days by agar dilution method; assay type: functional; details: clinical isolate3, 72 h, time 3 day
[30] = test system: Candida parapsilosis; assay: Antimicrobial activity against Candida parapsilosis ATCC 22019; assay type: functional; details: Lodderomyces parapsilosis
[31] = test system: Candida albicans; assay: Antimicrobial activity against Candida albicans ATCC 90023; assay type: functional
[32] = test system: MDA-MB-231; assay: Antiproliferative activity against human MDA-MB-231 cells after 24 hrs by MTT assay; assay type: functional, cell-based; details: MDA-MB-231, 24 h
[33] = test system: HEK293; assay: Cytotoxicity against HEK293 cells after 24 hrs by MTT assay; assay type: cell-based; details: Homo sapiens, HEK293, 24 h
[34] = test system: MCF7; assay: cells; details: Homo sapiens, MCF7, 24 h

Cc1ncc([N+](=O)[O-])n1CCOC(=O)Nc1ccccc1
CC50 at 48 h [1]: > 100000 nM | selectivity ratio [2]: > 102 | selectivity ratio [3]: 1110 | IC50 [4]: 90 nM | IC50 [5]: 980 nM

COc1cc(/C=C\c2ncc([N+](=O)[O-])n2CCOC(=O)c2c[nH]c3ccccc23)cc(OC)c1OC
IC50 [6]: 35 nM | IC50 [7]: 40 nM | IC50 [8]: 30 nM | IC50 [9]: 15 nM

CN(C)c1ccc(/C=C/c2ncc([N+](=O)[O-])n2CCOC(=O)c2nccc3ccccc23)cc1
IC50 [10]: 1920 nM | IC50 [11]: 430 nM | IC50 [12]: 170 nM | IC50 [13]: 120 nM | IC50 [14]: 140 nM

Cc1cc(C)nc(NS(=O)(=O)c2ccc(/N=C\c3ccc(OCCn4c([N+](=O)[O-])cnc4C)cc3)cc2)n1
IC50 [15]: 190 nM

COc1ccc(-c2cc(C(=O)OCCn3c([N+](=O)[O-])cnc3C)nn2-c2ccccc2)cc1
MIC [16]: 3.91 µg/mL (≈ 8.74 µM) | MIC [17]: 0.98 µg/mL (≈ 2.19 µM) | MIC [18]: 1.96 µg/mL (≈ 4.38 µM) | IC50 [19]: 920 nM | MIC [20]: 3.91 µg/mL (≈ 8.74 µM)

COc1cc2c(c(OC)c1OC)-c1ccc(OC)c(=O)cc1[C@@H](NC(C)=O)CC2 [COLCHICINE]
IC50 [6]: 37 nM | IC50 [7]: 45 nM | IC50 [8]: 38 nM | IC50 [9]: 55 nM

Cc1ccc(C(C)C)cc1OCCn1c([N+](=O)[O-])cnc1C
IC50 [21]: 4.921 uM/ml | IC50 [22]: 0.0011 uM/ml | MIC [23]: 2.7 µM (≈ 0.819 µg/mL)

Cc1ccc(C(C)C)cc1OC(=O)Cn1c([N+](=O)[O-])cnc1C
IC50 [21]: 52.35 uM/ml | IC50 [22]: 35.17 uM/ml | MIC [23]: 0.0094 µM (≈ 0.00298 µg/mL)

CC1(C)S[C@@H]2[C@H](NC(=O)[C@H](N)c3ccc(O)cc3)C(=O)N2[C@H]1C(=O)O [AMOXICILLIN]
MIC [24]: 1.07 µM (≈ 0.391 µg/mL) | MIC [25]: 0.14 µM (≈ 0.0512 µg/mL) | MIC [26]: 1.07 µM (≈ 0.391 µg/mL) | MIC [27]: 1.07 µM (≈ 0.391 µg/mL) | MIC [28]: 0.14 µM (≈ 0.0512 µg/mL) | MIC [29]: 1.07 µM (≈ 0.391 µg/mL)

Cc1ncc([N+](=O)[O-])n1CCOc1ccc(C(=O)Cc2ccc([N+](=O)[O-])cc2)c(O)c1O
MIC [24]: 0.88 µM (≈ 0.389 µg/mL) | MIC [25]: 1.76 µM (≈ 0.779 µg/mL) | MIC [26]: 1.76 µM (≈ 0.779 µg/mL) | MIC [27]: 1.76 µM (≈ 0.779 µg/mL) | MIC [28]: 1.76 µM (≈ 0.779 µg/mL) | MIC [29]: 1.76 µM (≈ 0.779 µg/mL)

Cc1ncc([N+](=O)[O-])n1CCOC(=O)NC1CCCCC1
CC50 at 48 h [1]: > 100000 nM | selectivity ratio [2]: > 217 | selectivity ratio [3]: 1670 | IC50 [4]: 60 nM | IC50 [5]: 460 nM

OC(Cn1cncn1)(Cn1cncn1)c1ccc(F)cc1F [FLUCONAZOLE]
MIC [30]: 156 µM (≈ 47.8 µg/mL) | MIC [31]: 156 µM (≈ 47.8 µg/mL)

Cc1ncc([N+](=O)[O-])n1Cc1cn(CCCCCN2C(=O)C(=O)c3cc(F)ccc32)nn1
IC50 [32]: 56200 nM | IC50 [33]: > 100000 nM | IC50 [34]: 70700 nM
